Several values for one entry are separate records, joined by “and”; a condition that tells them apart may be missing. Equal entries are not always repeated. Where two headings read alike, the source gives them in different places.
Experiments:
human α-thrombin = human α-thrombin (Homo sapiens, UniProt P00734); assay: Protease inhibition, Ki for human α-thrombin (fluorogenic substrate Z-Gly-Gly-Arg-AMC); format: biochemical; conditions: human alpha thrombin; for Slope normalized to DMSO (proteolytic substrate cleavage over time): replicates R1-R3
Summary of the method: (§1)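 Ki derived through Cheng–Prusoff from IC50s (four-parameter logistic fit) against activity of peptide-free controls. Product fluorescence was read every 3 min over 30 min at 25 °C, substrate Z-Gly-Gly-Arg-AMC at 50 μM. Enzyme was 2 nM human or 3 nM rat α-thrombin, pH 7.4 buffer.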

rat α-thrombin = target: T1, rat α-thrombin (Rattus norvegicus, UniProt P18292); assay: Protease inhibition, Ki for rat α-thrombin (fluorogenic substrate Z-Gly-Gly-Arg-AMC); format: biochemical; conditions: rat alpha thrombin; for Slope normalized to DMSO (proteolytic substrate cleavage over time): replicates R1-R3
T1 construct: rat α-thrombin (Molecular Innovations) were used at final concentrations of 2 nM and 3 nM; purchased Molecular Innovations
Summary of the method: as §1

porcine pepsin = target: T2, porcine pepsin (Sus scrofa, UniProt P00791); assay: Peptide stability in simulated gastric fluid (SGF); format: in vitro ADME
T2 construct: 0.32 g of porcine pepsin (Sigma-Aldrich, P7125) was dissolved under gentle agitation; purchased Sigma-Aldrich P7125
T2 sequence (P00791 60-385): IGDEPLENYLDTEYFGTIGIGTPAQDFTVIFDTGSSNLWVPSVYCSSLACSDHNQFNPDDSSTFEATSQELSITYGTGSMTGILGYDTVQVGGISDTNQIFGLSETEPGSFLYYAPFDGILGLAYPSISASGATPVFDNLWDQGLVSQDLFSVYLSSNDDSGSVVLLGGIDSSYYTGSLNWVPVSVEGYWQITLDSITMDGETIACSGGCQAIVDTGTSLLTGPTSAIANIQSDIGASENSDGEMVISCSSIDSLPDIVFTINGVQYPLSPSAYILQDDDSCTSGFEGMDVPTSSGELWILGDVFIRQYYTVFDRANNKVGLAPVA
Summary of the method: (§2)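 Peptide from a 1 mM DMSO stock was added to fluid pre-warmed at 37 °C. SGF was pH 1.2 NaCl with porcine pepsin (0.32 g per 100 ml), and SIF was pH 6.8 potassium phosphate with porcine pancreatin (1 g per 100 ml). Supernatant peptide was quantified by LC–MS, with residual expressed as T1/T0.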

[1] = Peptide stability in simulated intestinal fluid (SIF); format: in vitro ADME, porcine; conditions: simulated gi fluid; 8 h, 37 °C, pH 6.8; read-out: Proteolytic stability: SIF (8 h) % remaining
Summary of the method: as §2

porcine pancreatin = assay: as above; format: in vitro ADME; conditions: after 8 h vs 0 h (TIC)
Summary of the method: as §2

[2] = Passive artificial membrane permeability (PAMPA)

Structure (SMILES): O=C1C[C@H]2CCCN2C(=O)[C@H](Cc2ccccc2)NC(=O)[C@@H](NC(=O)c2ccc(Cl)s2)CSCc2cccc(n2)CSCCN1 [compound 31]
- Ki (human α-thrombin; average of R1-R3, read-out: Ki Average, human alpha thrombin inhibition): 608 nM
- Slope normalized to DMSO (proteolytic substrate cleavage over time) (human α-thrombin; peptide 1.02E-03 uM): 102.8 and 91.6 and 92.3
- Slope normalized to DMSO (proteolytic substrate cleavage over time) (human α-thrombin; peptide 1.04E+00 uM): 41.6 and 46.5 and 44.1
- Slope normalized to DMSO (proteolytic substrate cleavage over time) (human α-thrombin; peptide 1.27E-04 uM): 104.6 and 98.9 and 94.9
- Slope normalized to DMSO (proteolytic substrate cleavage over time) (human α-thrombin; peptide 1.30E-01 uM): 89.0 and 82.0 and 80.6
- Slope normalized to DMSO (proteolytic substrate cleavage over time) (human α-thrombin; peptide 1.59E-05 uM): 106.7 and 95.1 and 97.4
- Slope normalized to DMSO (proteolytic substrate cleavage over time) (human α-thrombin; peptide 1.63E-02 uM): 99.4 and 97.2 and 88.2
- Slope normalized to DMSO (proteolytic substrate cleavage over time) (human α-thrombin; peptide 2.03E-03 uM): 103.4 and 94.4 and 88.8
- Slope normalized to DMSO (proteolytic substrate cleavage over time) (human α-thrombin; peptide 2.08E+00 uM): 29.1 and 35.9 and 29.9
- Slope normalized to DMSO (proteolytic substrate cleavage over time) (human α-thrombin; peptide 2.54E-04 uM): 103.3 and 99.1 and 91.3
- Slope normalized to DMSO (proteolytic substrate cleavage over time) (human α-thrombin; peptide 2.60E-01 uM): 77.6 and 74.7 and 72.2
- Slope normalized to DMSO (proteolytic substrate cleavage over time) (human α-thrombin; peptide 3.18E-05 uM): 106.8 and 94.8 and 91.3
- Slope normalized to DMSO (proteolytic substrate cleavage over time) (human α-thrombin; peptide 3.26E-02 uM): 96.6 and 90.1 and 84.7
- Slope normalized to DMSO (proteolytic substrate cleavage over time) (human α-thrombin; peptide 4.07E-03 uM): 86.5 and 95.5 and 89.4
- Slope normalized to DMSO (proteolytic substrate cleavage over time) (human α-thrombin; peptide 4.17E+00 uM): 17.9 and 25.7 and 18.3
- Slope normalized to DMSO (proteolytic substrate cleavage over time) (human α-thrombin; peptide 5.21E-01 uM): 60.8 and 59.2 and 52.4
- Slope normalized to DMSO (proteolytic substrate cleavage over time) (human α-thrombin; peptide 6.36E-05 uM): 98.6 and 95.0 and 94.0
- Slope normalized to DMSO (proteolytic substrate cleavage over time) (human α-thrombin; peptide 6.51E-02 uM): 91.4 and 89.0 and 83.1
- IC50 (human α-thrombin; single replicates R1-R3, read-out: IC50, human alpha thrombin inhibition): 700 nM and 850 nM and 816 nM
- Ki (human α-thrombin; single replicates R1-R3, read-out: Ki, human alpha thrombin inhibition): 540 nM and 655 nM and 629 nM
- Ki (rat α-thrombin; average of R1-R3, read-out: Ki Average, rat alpha thrombin inhibition): 183 nM
- Slope normalized to DMSO (proteolytic substrate cleavage over time) (rat α-thrombin; peptide 1.02E-03 uM): 99.2 and 100.9 and 93.8
- Slope normalized to DMSO (proteolytic substrate cleavage over time) (rat α-thrombin; peptide 1.04E+00 uM): 29.7 and 30.1 and 28.1
- Slope normalized to DMSO (proteolytic substrate cleavage over time) (rat α-thrombin; peptide 1.27E-04 uM): 101.2 and 100.0 and 97.1
- Slope normalized to DMSO (proteolytic substrate cleavage over time) (rat α-thrombin; peptide 1.30E-01 uM): 74.9 and 71.7 and 69.9
- Slope normalized to DMSO (proteolytic substrate cleavage over time) (rat α-thrombin; peptide 1.59E-05 uM): 103.1 and 102.5 and 98.1
- Slope normalized to DMSO (proteolytic substrate cleavage over time) (rat α-thrombin; peptide 1.63E-02 uM): 92.3 and 92.5 and 97.9
- Slope normalized to DMSO (proteolytic substrate cleavage over time) (rat α-thrombin; peptide 1.67E+01 uM): 5.4 and 8.1 and 5.8
- Slope normalized to DMSO (proteolytic substrate cleavage over time) (rat α-thrombin; peptide 2.03E-03 uM): 98.5 and 94.4 and 93.1
- Slope normalized to DMSO (proteolytic substrate cleavage over time) (rat α-thrombin; peptide 2.08E+00 uM): 20.1 and 19.4 and 16.8
- Slope normalized to DMSO (proteolytic substrate cleavage over time) (rat α-thrombin; peptide 2.54E-04 uM): 119.5 and 99.6 and 95.9
- Slope normalized to DMSO (proteolytic substrate cleavage over time) (rat α-thrombin; peptide 2.60E-01 uM): 60.8 and 61.1 and 58.9
- Slope normalized to DMSO (proteolytic substrate cleavage over time) (rat α-thrombin; peptide 3.18E-05 uM): 100.8 (2×) and 96.5
- Slope normalized to DMSO (proteolytic substrate cleavage over time) (rat α-thrombin; peptide 3.26E-02 uM): 86.1 and 87.0 and 83.0
- Slope normalized to DMSO (proteolytic substrate cleavage over time) (rat α-thrombin; peptide 3.33E+01 uM): 5.3 (2×) and 6.5
- Slope normalized to DMSO (proteolytic substrate cleavage over time) (rat α-thrombin; peptide 4.07E-03 uM): 93.9 and 97.5 and 93.1
- Slope normalized to DMSO (proteolytic substrate cleavage over time) (rat α-thrombin; peptide 4.17E+00 uM): 12.5 and 13.2 and 11.9
- Slope normalized to DMSO (proteolytic substrate cleavage over time) (rat α-thrombin; peptide 5.09E-04 uM): 99.8 and 101.3 and 106.4
- Slope normalized to DMSO (proteolytic substrate cleavage over time) (rat α-thrombin; peptide 5.21E-01 uM): 39.6 and 40.5 and 38.3
- Slope normalized to DMSO (proteolytic substrate cleavage over time) (rat α-thrombin; peptide 6.36E-05 uM): 100.0 and 99.8 and 96.8
- Slope normalized to DMSO (proteolytic substrate cleavage over time) (rat α-thrombin; peptide 6.51E-02 uM): 90.0 and 82.1 and 78.1
- Slope normalized to DMSO (proteolytic substrate cleavage over time) (rat α-thrombin; peptide 6.67E+01 uM): 6.2 and 7.3 and 4.1
- Slope normalized to DMSO (proteolytic substrate cleavage over time) (rat α-thrombin; peptide 7.95E-06 uM): 105.8 and 104.8 and 99.9
- Slope normalized to DMSO (proteolytic substrate cleavage over time) (rat α-thrombin; peptide 8.14E-03 uM): 96.3 and 93.4 and 96.8
- Slope normalized to DMSO (proteolytic substrate cleavage over time) (rat α-thrombin; peptide 8.33E+00 uM): 9.2 and 9.9 and 7.4
- IC50 (rat α-thrombin; single replicates R1-R3, read-out: IC50, rat alpha thrombin inhibition): 339 nM and 326 nM (2×)
- Ki (rat α-thrombin; single replicates R1-R3, read-out: Ki, rat alpha thrombin inhibition): 188 nM (2×) and 181 nM (2×) and 180 nM (2×)
- SGF stability, Residual peptide Average (porcine pepsin; after 8 h vs 0 h (TIC), average of R1-R3): 92.45
- SGF stability, Residual peptide (porcine pepsin; after 8 h vs 0 h (TIC), single replicates R1-R3): 99.51 and 90.02 and 87.82
- remaining at 8 h (porcine pepsin; simulated gi fluid, 8 h, 37 °C, pH 1.2, read-out: Proteolytic stability: SGF (8 h) % remaining): 92 ± 6%
- remaining at 8 h [1]: 76 ± 8%
- SIF stability, Residual peptide Average (porcine pancreatin; average of R1-R3): 75.90
- SIF stability, Residual peptide (porcine pancreatin; single replicates R1-R3): 75.23 and 67.97 and 84.49
- PAMPA permeability: % permeability ([2]; 50 μM, 12–18 h, acceptor concentration relative to equilibrium): 47 ± 3%
- Papp at 50 μM ([2]; PAMPA, pH 7.4): 6.17 ×10⁻⁶ cm/s
- Permeability% Average ([2]; top well sample vs theoretical equilibrium sample (TIC), average of R1-R3): 46.6%
- Permeability% ([2]; top well sample vs theoretical equilibrium sample (TIC), single replicates R1-R3): 44.27% and 50.38% and 45.09%

Source: paper PMC11062899, “De novo development of small cyclic peptides that are orally bioavailable” (Nature Chemical Biology, 2023)
